Reference: US9040547B2, “Pyrrolopyrimidine and purine derivatives” (PFIZER INC., priority 2011, dated 2015)

Tests used:
Assay type in all cases: cell-based
EGFR L858R+T790M = EGFR L858R+T790M (Homo sapiens, UniProt P00533, L858R/T790M); assay: pEGFR Y1068 ELISA assay, NIH3T3/EGFR_L858R+T790M cells; settings: 3T3 cell line, 2 hrs compound treatment; read-out: pEGFRY1068 ELISA3T3T790M—L858R IC50;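 also: sandwich ELISA of EGFR phosphorylated at Tyr1068 in lysates of stably transfected NIH/3T3 cells, 11-point threefold dilution series run in duplicate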
NIH3T3/EGFR L858R+T790M = assay: Cell proliferation assay (CellTiter-Glo), NIH3T3/EGFR L858R+T790M; settings: Mus musculus, NIH3T3, 120 h, 3T3 cell line, three to five days of compound treatment, read-out: 3T3 L858R_T790M IC50
EGFR L858R = EGFR L858R (Homo sapiens, UniProt P00533, L858R); assay: pEGFR Y1068 ELISA assay, NIH3T3/EGFR_L858R cells; settings: 3T3 cell line, 2 hrs compound treatment; read-out: pEGFRY1068 ELISA3T3 L858R IC50;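 also: sandwich ELISA of phospho-EGFR Tyr1068 in lysates of stably transfected NIH/3T3 pools after 2 h compound exposure at 37 °C, 11-point threefold dilution series run in duplicate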
Chain of EGFR L858R (P00533 25-1210 L858R): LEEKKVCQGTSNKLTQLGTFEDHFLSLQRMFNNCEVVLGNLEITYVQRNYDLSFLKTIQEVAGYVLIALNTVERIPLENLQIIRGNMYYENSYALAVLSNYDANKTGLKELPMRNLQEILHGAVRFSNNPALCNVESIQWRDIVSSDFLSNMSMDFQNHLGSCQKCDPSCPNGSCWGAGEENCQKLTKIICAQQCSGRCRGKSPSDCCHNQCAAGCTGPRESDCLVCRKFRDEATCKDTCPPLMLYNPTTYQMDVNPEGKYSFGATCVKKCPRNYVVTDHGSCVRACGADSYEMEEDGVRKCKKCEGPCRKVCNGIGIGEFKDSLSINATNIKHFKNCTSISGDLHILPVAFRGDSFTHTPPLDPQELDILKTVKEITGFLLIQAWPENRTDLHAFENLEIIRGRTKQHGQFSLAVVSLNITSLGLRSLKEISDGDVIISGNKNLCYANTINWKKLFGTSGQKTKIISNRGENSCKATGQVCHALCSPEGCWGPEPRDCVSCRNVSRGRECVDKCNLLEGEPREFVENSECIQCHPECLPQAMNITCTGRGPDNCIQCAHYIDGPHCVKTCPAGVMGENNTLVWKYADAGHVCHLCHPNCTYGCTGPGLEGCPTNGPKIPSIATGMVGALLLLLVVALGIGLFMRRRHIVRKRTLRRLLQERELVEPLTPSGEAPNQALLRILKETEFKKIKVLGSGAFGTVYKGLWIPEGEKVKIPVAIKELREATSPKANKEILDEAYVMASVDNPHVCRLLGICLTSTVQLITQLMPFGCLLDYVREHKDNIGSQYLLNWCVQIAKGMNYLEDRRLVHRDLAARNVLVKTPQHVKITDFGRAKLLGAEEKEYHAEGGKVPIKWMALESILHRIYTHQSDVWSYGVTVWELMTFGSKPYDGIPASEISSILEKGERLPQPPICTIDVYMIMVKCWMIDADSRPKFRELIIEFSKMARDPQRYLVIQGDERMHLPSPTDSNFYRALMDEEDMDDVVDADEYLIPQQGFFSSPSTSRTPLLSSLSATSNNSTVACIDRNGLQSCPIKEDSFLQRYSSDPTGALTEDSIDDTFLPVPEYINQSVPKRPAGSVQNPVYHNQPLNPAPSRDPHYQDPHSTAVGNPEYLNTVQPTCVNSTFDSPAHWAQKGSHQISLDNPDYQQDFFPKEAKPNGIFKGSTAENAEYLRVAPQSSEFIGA

[1] = target: T1, EGFR wildtype, endogenous (Homo sapiens, UniProt P00533); assay: pEGFR Y1068 ELISA assay, A549 cells; settings: full serum media, stimulated 10 min with EGF (40 ng/mL), read-out: pEGFRY1068 ELISAA549 IC50;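 also: sandwich ELISA of phospho-EGFR Tyr1068 in cell lysates, cells exposed to compound for 2 h before EGF stimulation, 11-point threefold dilution series run in duplicate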
T1 construct: A549 (EGFR wildtype, endogenous); host or cells: A549

NIH3T3/EGFR_L858R = assay: Cell proliferation assay (CellTiter-Glo), NIH3T3/EGFR_L858R; settings: Mus musculus, NIH3T3, 120 h, 3T3 cell line, three to five days of compound treatment, read-out: 3T3 L858R IC50
Protocol: (§1) Cell proliferation was measured using the CellTiter-Glo® Luminescent Cell Viability Assay. The assay involves the addition of a single reagent (CellTiter-Glo® Reagent) directly to cells cultured in serum-supplemented medium. The assay uses this one-step addition to induce cell lysis and generate a luminescent signal proportional to the amount of ATP present which is directly proportional to the number of metabolically active cells present in culture. The following cell lines were evaluated in this assay: NIH3T3/EGFR_L858R, NIH3T3/EGFR_E746-A750_deletion, NIH3T3/EGFR L858R+T790M, NIH3T3/EGFR_E746-A750_deletion+T790M, PC-9, PC9-DRH, NCI-H1975, and NCI-H3255. NIH/3T3 parental cells, NCI-H1975, and NCI-H3255 were purchased from the American Type Culture Collection (Manassas, Va.), and PC-9 cells were obtained from Japan. All cells were cultured according to recommendations. NIH/3T3 cells were grown in DMEM (Invitrogen, Carlsbad, Calif.) supplemented with 10% newborn calf serum (Invitrogen), and NIH3T3/EGFR mutant cells were grown in complete media with 5 μg/mL puromycin (Invitrogen). PC-9, NCI-H1975, and NCI-H3255 were grown in RPMI (Invitrogen, Carlsbad, Calif.) supplemented with 10% FBS (Sigma, St Louis, Mo.), and PC9-DRH cells were grown in complete media with 2 uM PF-00299804. Plasmids (pLPCX) with various EGFR constructs were made by GenScript (Piscataway, N.J.), and stable pools of NIH/3T3 cells expressing these constructs were made at Pfizer La Jolla. PC9-DRH cells were generated at Pfizer La Jolla by exposing cells to increasing concentrations of PF-00299804. Cells were plated in complete culture media (3000-5000 cells/well, 50 μl/well) on the bottom of white clear-bottom tissue culture treated microtiter plates (#3610, Corning Inc, Corning, N.Y.) and allowed to adhere overnight at 37° C., 5% CO2. The following day, compound dilution plates were prepared in 96 well clear V-bottom 0.5 mL polypropylene block plates (#3956, Corning, Inc). All cell lines were not evaluated for each compound. Each compound evaluated was prepared as a DMSO stock solution (10 mM). Compounds were tested in duplicate on each plate, with an 11-point serial dilution curve (1:3 dilution). Compound treatment (50 μl) was added from the compound dilution plate to the cell plate. The highest compound concentration was 1 or 10 μM (final), with a 0.3% final DMSO (#D-5879, Sigma, St Louis, Mo.) concentration. Plates were then incubated at 37° C., 5% CO2. After three to five days of compound treatment, CellTiter-Glo® Reagent (#G7573, Promega, Madison, Wis.) was prepared in one of two ways. If thawing a frozen aliquot of CellTiter-Glo® Reagent, the aliquot was thawed and equilibrated to room temperature prior to use while keeping it protected from light. Alternatively, new bottles of CellTiter-Glo® Buffer and CellTiter-Glo® Substrate were thawed and equilibrated to room temperature prior to use. CellTiter-Glo® Buffer (100 mL) was transferred into the amber bottle containing CellTiter-Glo® Substrate to reconstitute the lyophilized enzyme/substrate mixture, forming the CellTiter-Glo® Reagent. The reconstituted reagent was mixed by gently inverting the contents to obtain a homogeneous solution, and went into solution easily in less than one minute. Any unused reconstituted CellTiter-Glo® Reagent was immediately aliquoted and frozen at −20° C., protected from light. Cell plates were equilibrated at room temperature for approximately 30 minutes. An equivolume amount of CellTiter-Glo® Reagent (100 μL) was added to each well. Plates were mixed for two minutes on an orbital shaker to induce cell lysis, and then allowed to incubate at room temperature for 10 minutes to stabilize the luminescent signal. Luminescence was recorded using the PerkinElmer EnVision Excite Multilabel Reader used for endpoint reading for Luminescence detection (Waltham, Mass.). Data were analyzed using a four-parameter fit in Microsoft Excel. […]

[2] = tested on: NIH3T3/EGFR_E746-A750_deletion; assay: Cell proliferation assay (CellTiter-Glo), NIH3T3/EGFR_E746-A750_deletion; settings: Mus musculus, NIH3T3, 120 h, 3T3 cell line, three to five days of compound treatment, read-out: 3T3 del IC50
Protocol: as §1

EGFR Del (PC9) = target: T2, EGFR Del (PC9) (Homo sapiens, UniProt P00533, DEL746-750); assay: EGFR ELISA, PC9 Del cells; settings: read-out: EGFR_ELISA9E PC9 Del IC50;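 also: cellular EGFR autophosphorylation at Tyr1068 quantified by sandwich ELISA of cell lysates after 2 h compound exposure at 37 °C, 11-point threefold dilution series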
T2 construct: endogenous in cells; host or cells: PC-9
T2 sequence (P00533 with tags, fused parts or gaps DEL746-750): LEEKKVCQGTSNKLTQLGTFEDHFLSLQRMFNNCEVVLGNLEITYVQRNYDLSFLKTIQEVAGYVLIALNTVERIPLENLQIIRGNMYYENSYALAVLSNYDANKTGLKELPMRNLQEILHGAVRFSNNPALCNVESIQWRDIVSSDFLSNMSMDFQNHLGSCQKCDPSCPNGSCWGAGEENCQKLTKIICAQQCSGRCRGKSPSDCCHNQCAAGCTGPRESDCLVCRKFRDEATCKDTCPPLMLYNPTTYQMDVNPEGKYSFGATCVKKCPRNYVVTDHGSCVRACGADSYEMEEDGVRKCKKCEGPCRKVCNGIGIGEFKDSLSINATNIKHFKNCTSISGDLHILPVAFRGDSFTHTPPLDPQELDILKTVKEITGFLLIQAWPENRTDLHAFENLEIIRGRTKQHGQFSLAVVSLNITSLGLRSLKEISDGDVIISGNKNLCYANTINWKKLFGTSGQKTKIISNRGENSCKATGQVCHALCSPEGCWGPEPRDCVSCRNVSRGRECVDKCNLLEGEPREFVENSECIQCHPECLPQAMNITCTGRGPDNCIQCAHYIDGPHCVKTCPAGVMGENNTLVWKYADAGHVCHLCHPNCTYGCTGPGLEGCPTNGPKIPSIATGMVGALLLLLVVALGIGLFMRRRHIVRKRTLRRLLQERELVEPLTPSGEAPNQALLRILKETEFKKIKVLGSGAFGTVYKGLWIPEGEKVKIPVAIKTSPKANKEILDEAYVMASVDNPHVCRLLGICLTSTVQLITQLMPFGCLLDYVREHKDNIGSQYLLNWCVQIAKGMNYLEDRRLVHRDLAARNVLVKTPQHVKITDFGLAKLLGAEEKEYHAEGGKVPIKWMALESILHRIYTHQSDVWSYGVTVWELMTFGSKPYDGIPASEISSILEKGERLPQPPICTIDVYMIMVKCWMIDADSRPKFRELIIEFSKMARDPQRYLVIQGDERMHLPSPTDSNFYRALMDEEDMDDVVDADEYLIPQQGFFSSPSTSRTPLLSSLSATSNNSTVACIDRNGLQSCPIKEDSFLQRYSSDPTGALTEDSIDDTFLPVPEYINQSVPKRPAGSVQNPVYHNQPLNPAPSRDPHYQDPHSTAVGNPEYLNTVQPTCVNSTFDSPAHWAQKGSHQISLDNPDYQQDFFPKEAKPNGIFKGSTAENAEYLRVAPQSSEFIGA

[3] = tested on: NIH3T3/EGFR_E746-A750_deletion+T790M; assay: Cell proliferation assay (CellTiter-Glo), NIH3T3/EGFR_E746-A750_deletion+T790M; settings: Mus musculus, NIH3T3, 120 h, 3T3 cell line, three to five days of compound treatment, read-out: 3T3 del_T790M IC50
Protocol: as §1

EGFR E746-A750 deletion = EGFR E746-A750 deletion (Homo sapiens, UniProt P00533, DEL746-750); assay: pEGFR Y1068 ELISA assay, NIH3T3/EGFR_E746-A750 deletion cells; settings: 3T3 Del cells, 2 hrs compound treatment; read-out: ELISA7E 3T3 Del IC50;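 also: sandwich ELISA on cell lysates detecting phospho-EGFR at Tyr1068, compounds run as 11-point threefold dilution series in duplicate, IC50 from inhibition of this phosphorylation signal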
Chain of EGFR E746-A750 deletion (P00533 with tags, fused parts or gaps DEL746-750): as above

[4] = target: T3, EGFR L858R+T790M, endogenous (Homo sapiens, UniProt P00533, L858R/T790M); assay: pEGFR Y1068 ELISA assay, NCI-H1975 cells; settings: value marked (H1975): NCI-H1975 cells, 2 hrs compound treatment; read-out: pEGFRY1068 ELISA3T3T790M—L858R IC50 (nM), (H1975);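 also: sandwich ELISA of endogenous phospho-EGFR (Tyr1068) in lysates of treated cells, 11-point 1:3 serial dilution tested in duplicate per plate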
T3 construct: NCI-H1975 (EGFR L858R+T790M, endogenous); host or cells: NCI-H1975
T3 sequence (P00533 25-1210 T790M/L858R): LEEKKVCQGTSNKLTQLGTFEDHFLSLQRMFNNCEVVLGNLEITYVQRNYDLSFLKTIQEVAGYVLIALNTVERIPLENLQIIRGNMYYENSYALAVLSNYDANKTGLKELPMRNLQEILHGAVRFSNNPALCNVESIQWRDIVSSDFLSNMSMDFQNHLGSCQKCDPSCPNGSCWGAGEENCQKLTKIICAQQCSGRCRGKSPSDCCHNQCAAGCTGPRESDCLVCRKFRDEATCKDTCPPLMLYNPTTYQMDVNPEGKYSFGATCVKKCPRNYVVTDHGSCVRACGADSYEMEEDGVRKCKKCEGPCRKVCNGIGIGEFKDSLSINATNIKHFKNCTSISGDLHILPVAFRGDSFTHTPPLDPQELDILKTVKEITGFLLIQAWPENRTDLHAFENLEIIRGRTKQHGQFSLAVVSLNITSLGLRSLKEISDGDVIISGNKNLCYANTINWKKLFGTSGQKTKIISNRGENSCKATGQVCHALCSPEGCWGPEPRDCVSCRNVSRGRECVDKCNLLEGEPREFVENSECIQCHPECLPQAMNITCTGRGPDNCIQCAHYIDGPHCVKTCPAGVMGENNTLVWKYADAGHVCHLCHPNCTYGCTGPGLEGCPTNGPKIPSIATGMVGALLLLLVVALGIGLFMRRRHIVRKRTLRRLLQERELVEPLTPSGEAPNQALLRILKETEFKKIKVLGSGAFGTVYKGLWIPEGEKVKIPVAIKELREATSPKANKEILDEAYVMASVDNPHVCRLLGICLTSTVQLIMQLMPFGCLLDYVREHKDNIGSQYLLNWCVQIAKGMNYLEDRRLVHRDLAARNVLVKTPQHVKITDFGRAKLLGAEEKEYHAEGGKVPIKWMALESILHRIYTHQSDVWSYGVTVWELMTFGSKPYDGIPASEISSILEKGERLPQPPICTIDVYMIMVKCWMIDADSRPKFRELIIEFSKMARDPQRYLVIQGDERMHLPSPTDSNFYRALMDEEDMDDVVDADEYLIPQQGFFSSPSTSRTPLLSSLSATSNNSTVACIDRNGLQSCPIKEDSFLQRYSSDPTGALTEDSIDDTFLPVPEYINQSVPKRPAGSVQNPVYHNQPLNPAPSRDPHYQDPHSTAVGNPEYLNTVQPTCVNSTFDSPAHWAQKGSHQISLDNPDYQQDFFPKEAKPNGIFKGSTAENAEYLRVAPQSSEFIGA

| Compound | IC50 (EGFR L858R+T790M) [nM] | IC50 (NIH3T3/EGFR L858R+T790M) [nM] | IC50 (EGFR L858R) [nM] | IC50 [1] [µM] | IC50 (NIH3T3/EGFR_L858R) [nM] | IC50 [2] [nM] | IC50 (EGFR Del (PC9)) [nM] | IC50 [3] [nM] | IC50 (EGFR E746-A750 deletion) [nM] | IC50 [4] [nM] |
| --- | --- | --- | --- | --- | --- | --- | --- | --- | --- | --- |
| C=CC(=O)N[C@H]1C[C@@H](Oc2nc(Nc3cnn(C)c3)nc3[nH]cc(C#N)c23)C1 (single isomer, unassigned) [Example 5, N-[cis-3-({5-cyano-2-[(1-methyl-1H-pyrazol-4-yl)amino]-7H-pyrrolo[2,3-d]pyrimidin-4-yl}oxy)cyclobutyl]prop-2-enamide] | 221 | 100 to 1000 | 1810 | > 10 | > 1000 | 100 to 1000 | 982 | 100 to 1000 | 1320 | – |
| C=CC(=O)N[C@@H]1CCCN(c2nc(Nc3cnn(C)c3)nc3[nH]cc(Cl)c23)C1 [Example 11, N-[(3R)-1-{5-chloro-2-[(1-methyl-1H-pyrazol-4-yl)amino]-7H-pyrrolo[2,3-d]pyrimidin-4-yl}piperidin-3-yl]prop-2-enamide] | – | 100 to 1000 | 8860 | > 10 | > 1000 | > 1000 | – | 100 to 1000 | – | 525 |
| C=CC(=O)Nc1cccc(Oc2nc(Nc3ccn(CC)n3)nc3[nH]ccc23)c1 [Example 22] | 11 | 10 to 100 | 81 | > 10 | 100 to 1000 | < 10 | – | < 10 | 27 | – |
| C=CC(=O)Nc1cccc(Oc2nc(Nc3cc[nH]n3)nc3[nH]ccc23)c1 [Example 27] | – | – | – | > 10 | – | – | – | – | 56 | 146 |
| C=CC(=O)Nc1cccc(Oc2nc(Nc3cn(C)nc3C(F)(F)F)nc3[nH]ccc23)c1 [Example 32] | 9 | 10 to 100 | 47 | 1.34 | > 1000 | 10 to 100 | – | < 10 | 98 | – |
| C=CC(=O)Nc1cccc(Oc2nc(Nc3ccn(C)n3)nc3[nH]cc(C#N)c23)c1 [Example 36] | 20 | 100 to 1000 | 418 | > 10 | > 1000 | 10 to 100 | – | 10 to 100 | 45 | – |
| C=CC(=O)Nc1cccc(Oc2nc(Nc3cnn(C)n3)nc3[nH]ccc23)c1 [Example 40] | 20 | 10 to 100 | 99 | > 6.38 | > 1000 | 10 to 100 | – | < 10 | 44 | – |
| C=CC(=O)Nc1cccc(Oc2nc(Nc3cnn(C)c3)nc3[nH]cc(C#N)c23)c1 [Example 57] | 67 | 10 to 100 | 105 | > 10 | > 1000 | < 10 | 44 | 10 to 100 | 25 | – |
| C=CC(=O)N(C)[C@H]1C[C@H](Oc2nc(Nc3cn(C)nc3C)nc3[nH]cc(Cl)c23)C1 [Example 62] | 10 | 10 to 100 | 218 | > 10 | 10 to 100 | 10 to 100 | 558 | < 10 | 237 | – |
| C=CC(=O)N[C@H]1C[C@H](Oc2nc(Nc3cnn(C)c3)nc3[nH]cc(Cl)c23)C1 [Example 63] | 67 | > 1000 | 2010 | > 10 | > 1000 | > 1000 | – | 100 to 1000 | 1220 | – |
| C=CC(=O)N1CC[C@@H](Oc2nc(Nc3cnn(C)c3)nc3[nH]cc(Cl)c23)C1 [Example 65] | 44 | 100 to 1000 | 510 | > 10 | 100 to 1000 | 100 to 1000 | – | 10 to 100 | 1170 | – |
| C=CC(=O)N1C[C@H](COc2nc(Nc3cn(C)nc3CC)nc3[nH]cc(F)c23)[C@@H](OC)C1 [Example 68] | 42 | 100 to 1000 | 208 | > 10 | 100 to 1000 | 100 to 1000 | – | 10 to 100 | 1060 | – |
| C=CC(=O)N1C[C@H](COc2nc(Nc3cn(C)nc3OC)nc3[nH]cc(Cl)c23)[C@@H](OC)C1 [Example 70] | 12 | 100 to 1000 | 113 | > 10 | 100 to 1000 | 100 to 1000 | 592 | 10 to 100 | 269 | – |
| C=CC(=O)N1C[C@@H]2CN(c3nc(Nc4cnn(C)c4)nc4[nH]cc(Cl)c34)C[C@@H]2C1 [Example 71] | 20 | 100 to 1000 | 143 | > 5.46 | 100 to 1000 | 10 to 100 | – | 10 to 100 | 356 | – |
| C=CC(=O)N[C@H]1CC[C@@H](Oc2nc(Nc3cnn(C)c3)nc3[nH]cc(Cl)c23)C1 [Example 77] | – | 100 to 1000 | 5190 | > 10 | > 1000 | > 1000 | – | 100 to 1000 | – | 301 |
| C=CC(=O)Nc1cc(F)cc(Oc2nc(Nc3cnn([C@@H]4CCN(C)C4)c3)nc3[nH]ccc23)c1 [Example 107] | 3 | 10 to 100 | 26 | 2.17 | 10 to 100 | < 10 | – | < 10 | 12 | – |
| C=CC(=O)N(C)[C@H]1C[C@H](Oc2nc(Nc3cnn(C)c3)nc3[nH]cc(Cl)c23)C1 [Example 108] | 7 | 10 to 100 | 164 | > 10 | 100 to 1000 | 10 to 100 | 352 | < 10 | 81 | – |
